Assay results as given in patent EP0329198B1, “Base modified oligo- and polynucleotides and methods of preparing and using same” (priority 1981, dated 1982).
Like-named read-outs stand apart in the source and are kept apart here.

How the values were obtained:
Streptavidin-Sepharose = Streptavidin-Sepharose (Streptomyces avidinii, UniProt P22629)
Excerpt: Its preparation and purification is described in Hoffman, et al., Proc. Natl. Acad. Sci., 77, 4666 (1980).

streptavidin = streptavidin (Streptomyces avidinii, UniProt P22629); details: affinity of streptavidin for biotin; cited from earlier work
streptavidin, sequence (P22629 25-183): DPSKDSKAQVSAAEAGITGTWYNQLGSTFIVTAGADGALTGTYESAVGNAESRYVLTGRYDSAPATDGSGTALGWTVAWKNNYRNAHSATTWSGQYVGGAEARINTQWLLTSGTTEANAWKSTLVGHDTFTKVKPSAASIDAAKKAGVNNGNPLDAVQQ

[1] = test system: CHO cells, permeabilized by treatment with lysolecithin; experiment: Polymerase substrate function in permeabilized cells
avidin = avidin (Gallus gallus, UniProt P02701); details: cited from earlier work
avidin, sequence (P02701 25-152): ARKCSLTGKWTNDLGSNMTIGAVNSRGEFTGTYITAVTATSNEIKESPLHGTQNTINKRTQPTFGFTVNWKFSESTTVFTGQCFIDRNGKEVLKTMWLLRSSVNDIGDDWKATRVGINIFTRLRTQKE

Streptavidin-Sepharose, sequence (P22629 25-183): as the sequence (P22629 25-183) above

Iminobiotinyl-dUTP [^3H-IB-dUTP]
% Retained on SA-Sepharose (Streptavidin-Sepharose; Load - 10 mM Tris-HCl, 8.3, 50 mM NaCl): 100%
% Retained on SA-Sepharose (Streptavidin-Sepharose; eluent (1) 0.1 M NaCl): 100%
% Retained on SA-Sepharose (Streptavidin-Sepharose; eluent (2) 1.0 M NaCl): 100%
% Retained on SA-Sepharose (Streptavidin-Sepharose; eluent (3) 8 M Urea): 97.5%
% Retained on SA-Sepharose (Streptavidin-Sepharose; eluent (4) 6 M guanidine-HCl): 97.0%
% Retained on SA-Sepharose (Streptavidin-Sepharose; eluent (5) 50 mM NH4-acetate, pH 4.0): <0.01%
% Retained on SA-Sepharose (Streptavidin-Sepharose; eluent (6) 50 mM NH4-acetate, pH 4.0 2 mM biotin): <0.01%

O=C(O)CCCC[C@@H]1SC[C@@H]2NC(=O)N[C@@H]21 [biotin]
Kassn (streptavidin): 10^15

O=C(CCCCC1SCC2NC(=O)NC21)NC/C=C/c1cn(C2CC(O)C(COP(=O)(O)OP(=O)(O)OP(=O)(O)O)O2)c(=O)[nH]c1=O (stereo not shown) [Bio-dUTP, biotinyl-dUTP]
polymerase substrate function [1]: function as a polymerase substrate

N=C1N[C@H]2[C@H](CS[C@H]2CCCCC(=O)O)N1 [iminobiotin]
binding to avidin relative to biotin (avidin): less tightly than biotin
